The target in this assay is T1, bovine pancreatic trypsin (Bos taurus, UniProt P00760).
T1 sequence (P00760 24-246): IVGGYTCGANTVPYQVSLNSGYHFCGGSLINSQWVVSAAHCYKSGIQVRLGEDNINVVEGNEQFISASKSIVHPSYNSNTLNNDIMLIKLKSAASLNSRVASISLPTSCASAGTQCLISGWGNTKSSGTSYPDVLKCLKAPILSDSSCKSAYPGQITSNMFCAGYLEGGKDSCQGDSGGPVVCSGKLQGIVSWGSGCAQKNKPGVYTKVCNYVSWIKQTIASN
As to the kind of experiment: fluorogenic AMC substrate hydrolysis, kinetic read, non-linear regression. The format is biochemical.

The values that follow come from publication PMC9081267 (Nature microbiology, 2022).

One may read the IC50 as the concentration that gives 50% inhibition. A lower IC50 goes with inhibition by little substance.

Regarding `C=CC1=C(C)/C(=C/C2=NC(=C\c3[nH]c(/C=C4\NC(=O)C(C)=C4C=C)c(C)c3CCC(=O)O)/C(CCC(=O)O)=C2C)NC1=O` [Biliverdin], the IC50 worked out at 12.7 µM.

In the case of `CCC1=C(C)/C(=C/c2[nH]c(Cc3[nH]c(/C=C4\NC(=O)C(C)=C4CC)c(C)c3CCC(=O)O)c(CCC(=O)O)c2C)NC1=O` [Mesobilirubin], half-maximal inhibition (IC50) required 3.86 µM.

`C=CC1=C(C)/C(=C/c2[nH]c(Cc3[nH]c(/C=C4\NC(=O)C(C)=C4C=C)c(C)c3CCC(=O)O)c(CCC(=O)O)c2C)NC1=O` [Unconjugated Bilirubin] came in with an IC50 of 3.48 µM.

Molecule `CCC1=C(C)C(Cc2[nH]c(Cc3[nH]c(CC4NC(=O)C(C)=C4CC)c(C)c3CCC(=O)O)c(CCC(=O)O)c2C)NC1=O` (stereo not shown) [Urobilinogen] came in with an IC50 of 4.83 µM.
